This experiment deals with primary culture of bovine mammary epithelial cells. Put plainly: Triglyceride / fat secreted to the medium by mammary epithelial cells (Nile red staining, HPLC-ELSD). It counts as cell-based. The text has this:
For all the experiments, primary culture of bovine mammary epithelial cells were used. The cells were isolated from 3 lactating Holstein cows according to an established protocol (Cohen et al., 2015 supra). Study protocols were in compliance with the regulations of the Israeli Ministry of Health, under the supervision of the Department for Control of Animal Products, State of Israel Ministry of Agriculture Rural Development Veterinary Services and Animal Health. Certificate Nu: #80. After isolation, 60,000 cells were plated in a 35-mm plastic dish on glass cover slips for all florescence staining experiments. For production analysis, 150,000 cells were plated in a 60-mm plastic dish for lipids, protein, and lactose extraction. […] After 24 h of incubation, medium was collected for triglyceride and phospholipid quantification, and cells were harvested for cell counting, lipid, lactose or protein extraction. […]
After treatment, total lipids were extracted from harvested cells and from collected medium. […] Quantification was performed against external standard curves and expressed as μg/per 10^6 live cells or as weight % out of the sum of phospholipids (μg) in the sample. Live cell number was determined with a hemocytometer after 5 min of trypan blue staining. […]

As for `O=c1c(O)c(-c2cc(O)c(O)c(O)c2)oc2cc(O)cc(O)c12` [myricetin, Myricetin], the triglyceride secretion entry was “can increase”.

The values above are taken from patent publication US20230416679A1, “METHODS AND COMPOSITIONS FOR IN-VITRO AUGMENTATION OF MILK PRODUCTION FROM MAMMARY EPITHELIAL CELLS” (Wilk Technologies International Ltd., priority 2021, published 2023).
